Source: patent US20140094456A1, “ANTI-FIBROTIC PYRIDINONES” (InterMune, Inc., priority 2012, published 2014)

test system: endothelin-1 (ET-1) production; experiment: ET-1 assay: inhibitory effect on TGF-b induced endothelin-1 production in fibroblasts (ELISA); format: cell-based, human; conditions: Homo sapiens, Fibroblast, inhibition of stimulant (TGFb, serum, LPA etc) induced ET-1 production in fibroblasts
Protocol: Assay of Inhibitory Effect on TGF-b Induced Endothelin-1 Production
Fibroblasts (primary human lung and dermal, HFL-1, 3T3 etc) are seeded in 96-well plates at ˜15000 cells/well and serum starved for 0-48 hours. After media exchange, compounds serially diluted in DMSO are added to the cells. After a brief incubation of ˜30 min, stimulants (TGFb, serum, LPA etc) are added followed by further incubation for 16-48 hours. Media is then harvested and stored frozen in plate format for later endothelin-1 (ET-1) determination by ELISA. Toxicity measurements are made using the ATPlite kit (Perkin-Elmer). ET-1 is quantified using an ELISA kit (R&D Systems). The amount of ET-1 produced in the assay wells are back-calculated using the ELISA standard. The ability of a compound to inhibit ET-1 production is typically analyzed by fitting dose-response curves to a 4-parameter logistic function to obtain an EC50 value. A measure of cytotoxicity (CC50) is likewise reported from the same experiment using the ATPlite data.
(§1) Compounds of some embodiments were prepared according to synthetic methods described herein and assay data obtained for EC50 against ET-1. The assay data obtained is presented in Table 2, in which A=less than 50 μM, B=greater than or equal to 50 μM and less than or equal to 200 μM; and C=greater than 200 μM.

Structure (SMILES) | EC50
Cc1cc(=O)n(-c2ccc(C(F)(F)F)cc2)cc1-c1ccccc1 [Compound 170] | < 50 µM
CC(=O)c1ccc(=O)n(-c2ccc(OC(C)C)cc2)c1 [Compound 10] | > 200 µM
COCCOc1ccc(Oc2cc(=O)n(-c3ccc(OC(F)(F)F)cc3)cc2-c2cnn(C)c2)cc1 [Compound 533] | 50 to 200 µM
Cn1cc(-c2cn(-c3ccc(OC(F)(F)F)cc3)c(=O)cc2NC(=O)OCc2ccccc2)cn1 [Compound 140] | 50 to 200 µM
CCOC(=O)Nc1cc(=O)n(-c2ccc(OC(F)(F)F)cc2)cc1-c1ccc(F)cc1 [Compound 114] | > 200 µM
CN1C(=O)COc2c(-c3cnn(C)c3)cn(-c3ccc(OC(F)(F)F)cc3)c(=O)c21 [Compound 396] | > 200 µM
COCCOCCOCCOc1cccc(-n2cc(C)ccc2=O)c1 [Compound 22] | > 200 µM
O=c1c2c(ncn2C2CC2)c(-c2cn[nH]c2)cn1-c1ccc(OC(F)(F)F)cc1 [Compound 650] | < 50 µM
CCCCOC(=O)Nc1cc(=O)n(-c2ccc(OC(F)(F)F)cc2)cc1-c1cnn(C)c1 [Compound 136] | 50 to 200 µM
COCCOCCOCCOc1ccc(-n2cc(C)ccc2=O)cc1 [Compound 21] | > 200 µM

same assay, conditions: inhibition of stimulant (TGFb, serum, LPA etc) induced ET-1 production in fibroblasts

Structure (SMILES) | EC50
CC(C)Oc1ccc(-n2cc(-c3ccc(F)cc3)ccc2=O)cc1 [Compound 288] | 50 to 200 µM

test system: Fibroblasts (primary human lung and dermal, HFL-1, 3T3 etc); experiment: Cell proliferation assay: inhibitory effect on cell proliferation (BrdU incorporation) in fibroblasts; format: cell-based; conditions: HFL1, 50% inhibition of stimulant (LPA, TGFb, serum etc) induced increase of BrdU incorporation in fibroblasts
Protocol: Assay of Inhibitory Effect on Cell Proliferation (BrdU Incorporation)
Fibroblasts (primary human lung and dermal, HFL-1, 3T3 etc) were plated on a 96-well plate and serum starved for 24-48 hours. The media were then exchanged for media containing stimulants (LPA, TGFb, serum etc) and cultured further for 16-24 hours before BrdU addition. After culturing for another 8 hours, cells were washed with PBS and the amount of BrdU incorporated into the cells was assayed by absorbance at 450 nm using the Cell proliferation ELISA system (RPN250, Amersham LIFE SCIENCE). The difference between the amount of BrdU incorporated in the stimulant-added well and the amount of BrdU incorporated in the well containing no stimulant represented the amount of BrdU incorporation accelerated by stimulant. The increase of BrdU incorporation without the addition of test compounds was set as 100% and the concentration of compound with 50% inhibition in the increase of BrdU incorporation (IC50 value) was determined. The test compounds were added 0-30 min before stimulant addition.
as §1, with “IC50 for BrdU inhibition.” for “EC50 against ET-1.”, “3,” for “2,”

Structure (SMILES) | IC50
O=c1c2c(ncn2C2CC2)c(-c2cn[nH]c2)cn1-c1ccc(OC(F)(F)F)cc1 [Compound 650] | < 50 µM
COCCOCCOCCOc1ccc(-n2cc(C)ccc2=O)cc1 [Compound 21] | > 200 µM
